The record followed here is article PMC9084888, “FGFR2–BRD4 Axis Regulates Transcriptional Networks of Histone 3 Modification and Synergy Between Its Inhibitors and PD-1/PD-L1 in a TNBC Mouse Model” (Frontiers in Immunology, 2022).

What all share (type): cell-based, mouse
The test system of one assay is c-Myc. In words: Western blot of c-Myc in treated Fgfr2-S252W tumor cells. The following applies: Figure 5F. The method, then:
(§1) Total proteins of tumors or cells were extracted using RIPA buffer with phosphatase and a protease inhibitor. Following a previously described protocol, immunoblotting was carried out using ChemiDocTM with corresponding antibodies. The antibodies used for IHC and Western blot are listed in Supplementary Table S2 .
(§2) (C) Immunoblots with antibodies specific for the H3K9 acetylated lysine residues of histone H3 and pathway analysis of the activation of FGFR2 tumors or wild type (WT). […] (E) Assessment of the drug response of BGJ398, JQ1, or the combined treatment of Fgfr2-S252W tumor cells with the Alamar blue assay. […] (G) Inflammation analysis using real-time RT-PCR from Fgfr2-S252W or WT mouse. P-values by using GraphPad Prism 7 Software. **p < 0.01, ***p < 0.001, ****p < 0.0001.
(Immunoblotting shows a protein as a band on a membrane.)

Another assay concerns BRD4. Kind of assay: Western blot of BRD4 in treated Fgfr2-S252W tumor cells. The following applies: Figure 5F. The method, then: as §1, §2
For another assay, the system named is Fgfr2-S252W tumor cells. In words: Alamar blue drug response assay of Fgfr2-S252W tumor cells. An excerpt: All animal experiments were approved by the University of Macau Animal Ethics Committee (under the protocol UMARE-015-2019). The generation of Fgfr2-S252W mice was described in a previous work ([19]). Transgenic mice were continually checked to accelerate the growth of mammary tumors. Tumor samples were cut using sharp blades into small pieces of about 0.1–0.3 cm in diameter and processed three ways, as follows: 1) two larger pieces were fixed in 10% formalin and processed for histology and immunohistochemistry (IHC) staining with antibodies; 2) three pieces were immediately frozen in liquid nitrogen and used for subsequent DNA, RNA, and protein isolation; and 3) all the remaining pieces were placed in a freezing medium [10% DMSO/25% serum/65% Dulbecco’s modified Eagle’s medium (DMEM)], slowly frozen to −80°C, and transferred into liquid nitrogen a few days later. […] Primary FGFR2 tumor cells were derived from the Fgfr2-S252W mouse model using a standard procedure and maintained in F-medium.
Figure 5 (A, B) RT-PCR analysis of the mRNA levels of Brd4 (A) and c-Myc (B) in tumors from the activation of Fgfr2-S252W transgenic mice. (C) Immunoblots with antibodies specific for the H3K9 acetylated lysine residues of histone H3 and pathway analysis of the activation of FGFR2 tumors or wild type (WT). […]
(In general: The colour change of resazurin is a common sign of viable cells or microbes.)

Regarding `CCN1CCN(c2ccc(Nc3cc(N(C)C(=O)Nc4c(Cl)c(OC)cc(OC)c4Cl)ncn3)cc2)CC1` [BGJ398], in the assay on c-Myc, the “inhibition of c-Myc (Western blot)” value is recorded as “inhibit”. In addition, the “inhibition of BRD4 (Western blot)” value in the assay on BRD4 is “inhibit”.
On to `Cc1sc2c(c1C)C(c1ccc(Cl)cc1)=N[C@@H](CC(=O)OC(C)(C)C)c1nnc(C)n1-2` [JQ1], for which the “inhibition of c-Myc (Western blot)” value in the assay with c-Myc is “inhibit”. In addition, in the assay on Fgfr2-S252W tumor cells, the “resistance of Fgfr2-S252W tumor cells” value was “still showed resistance”. For the same compound, the “drug response of Fgfr2-S252W cells” value with Fgfr2-S252W tumor cells (cell culture conditions, single agent, compared to response to FGFR inhibitor BGJ398) is listed as “not very sensitive”. For the same compound, the “inhibition of BRD4 (Western blot)” value with BRD4 is “inhibit”.
